Experimental data published in ChEMBL document CHEMBL1201862, “PubChem BioAssay data set” (2004).
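In this assay, cells in 96-well plates receive the compound at five concentrations for 48 hours. Endpoints are linearly interpolated between the surrounding concentrations. At the GI50, growth is halved.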 Calls of active or inactive are those of the source. Rule as the data show it: active = GI50 up to about 1.1 µM and inactive = higher.

Legend:
Assay in all cases: DTP human tumour cell line panel, 48 h
K562 = system: K562
SF-268 = system: SF-268
EKVX = system: EKVX
NCI-H23 = system: NCI-H23
UO-31 = system: UO-31
LOX IMVI = system: LOX IMVI
HOP-92 = system: HOP-92
MDA-MB-435 = system: MDA-MB-435
OVCAR-8 = system: OVCAR-8
OVCAR-5 = system: OVCAR-5
COLO 205 = system: COLO 205
A498 = system: A498
SF-539 = system: SF-539
UACC-257 = system: UACC-257
NCI/ADR-RES = system: NCI/ADR-RES
SNB-75 = system: SNB-75
MOLT-4 = system: MOLT-4
SW-620 = system: SW-620
OVCAR-4 = system: OVCAR-4
IGROV-1 = system: IGROV-1
DU-145 = system: DU-145
T47D = system: T47D
CCRF-CEM = system: CCRF-CEM
HT-29 = system: HT-29
M14 = system: M14
MCF7 = system: MCF7
RXF 393 = system: RXF 393
786-0 = system: 786-0
TK-10 = system: TK-10
SK-OV-3 = system: SK-OV-3
SK-MEL-28 = system: SK-MEL-28
BT-549 = system: BT-549
UACC-62 = system: UACC-62
HCT-116 = system: HCT-116
RPMI-8226 = system: RPMI-8226
ACHN = system: ACHN
NCI-H226 = system: NCI-H226
HCC 2998 = system: HCC 2998
NCI-H522 = system: NCI-H522
HCT-15 = system: HCT-15
KM12 = system: KM12
SNB-19 = system: SNB-19
MDA-MB-231 = system: MDA-MB-231
A549 = system: A549
U-251 = system: U-251
SR = system: SR
SK-MEL-5 = system: SK-MEL-5
CAKI-1 = system: CAKI-1
SF-295 = system: SF-295
SN12C = system: SN12C
Hs-578T = system: Hs-578T
Malme-3M = system: Malme-3M
SK-MEL-2 = system: SK-MEL-2
NCI-H460 = system: NCI-H460
PC-3 = system: PC-3
HOP-62 = system: HOP-62
MDA-N = system: MDA-N

SMILES: Cc1oc2nc(N(C)C)n3c(C)nnc3c2c1C
- GI50 (K562): > 100 µM (inactive)
- GI50 (SF-268): > 100 µM (inactive)
- GI50 (EKVX): > 100 µM (inactive)
- GI50 (NCI-H23): > 100 µM (inactive)
- GI50 (UO-31): > 100 µM (inactive)
- GI50 (LOX IMVI): > 100 µM (inactive)
- GI50 (HOP-92): > 100 µM (inactive)
- GI50 (MDA-MB-435): > 100 µM (inactive)
- GI50 (OVCAR-8): > 100 µM (inactive)
- GI50 (OVCAR-5): > 100 µM (inactive)
- GI50 (COLO 205): > 100 µM (inactive)
- GI50 (A498): > 100 µM (inactive)
- GI50 (SF-539): > 100 µM (inactive)
- GI50 (UACC-257): > 100 µM (inactive)
- GI50 (NCI/ADR-RES): > 100 µM (inactive)
- GI50 (SNB-75): > 100 µM (inactive)
- GI50 (MOLT-4): > 100 µM (inactive)
- GI50 (SW-620): > 100 µM (inactive)
- GI50 (OVCAR-4): > 100 µM (inactive)
- GI50 (IGROV-1): > 100 µM (inactive)
- GI50 (DU-145): > 100 µM (inactive)
- GI50 (T47D): > 100 µM (inactive)
- GI50 (CCRF-CEM): > 100 µM (inactive)
- GI50 (HT-29): > 100 µM (inactive)
- GI50 (M14): > 100 µM (inactive)
- GI50 (MCF7): > 100 µM (inactive)
- GI50 (RXF 393): > 100 µM (inactive)
- GI50 (786-0): > 100 µM (inactive)
- GI50 (TK-10): > 100 µM (inactive)
- GI50 (SK-OV-3): > 100 µM (inactive)
- GI50 (SK-MEL-28): > 100 µM (inactive)
- GI50 (BT-549): > 100 µM (inactive)
- GI50 (UACC-62): > 100 µM (inactive)
- GI50 (HCT-116): > 100 µM (inactive)
- GI50 (RPMI-8226): > 100 µM (inactive)
- GI50 (ACHN): > 100 µM (inactive)
- GI50 (NCI-H226): > 100 µM (inactive)
- GI50 (HCC 2998): > 100 µM (inactive)
- GI50 (NCI-H522): > 100 µM (inactive)
- GI50 (HCT-15): > 100 µM
- GI50 (KM12): > 100 µM (inactive)
- GI50 (SNB-19): > 100 µM (inactive)
- GI50 (MDA-MB-231): > 100 µM (inactive)
- GI50 (A549): > 100 µM (inactive)
- GI50 (U-251): > 100 µM (inactive)
- GI50 (SR): > 100 µM (inactive)
- GI50 (SK-MEL-5): > 100 µM (inactive)
- GI50 (CAKI-1): > 100 µM (inactive)
- GI50 (SF-295): > 100 µM (inactive)
- GI50 (SN12C): > 100 µM (inactive)
- GI50 (Hs-578T): > 100 µM (inactive)

SMILES: Nc1ccc(-c2nc3ccc(F)cc3s2)cc1I
- GI50 (K562): > 100 µM (inactive)
- GI50 (SF-268): > 63.8 µM (inactive)
- GI50 (EKVX): > 51.6 µM (inactive)
- GI50 (Malme-3M): > 100 µM (inactive)
- GI50 (NCI-H23): > 100 µM (inactive)
- GI50 (UO-31): > 100 µM (inactive)
- GI50 (LOX IMVI): > 100 µM (inactive)
- GI50 (HOP-92): 24.8 µM (inactive)
- GI50 (MDA-MB-435): > 100 µM (inactive)
- GI50 (OVCAR-8): > 79.4 µM (inactive)
- GI50 (OVCAR-5): 0.0515 µM (active)
- GI50 (COLO 205): > 100 µM (inactive)
- GI50 (A498): > 100 µM (inactive)
- GI50 (SF-539): 5.9 µM (inactive)
- GI50 (UACC-257): > 100 µM (inactive)
- GI50 (NCI/ADR-RES): > 31 µM (inactive)
- GI50 (SNB-75): 30.8 µM (inactive)
- GI50 (MOLT-4): 12.4 µM (inactive)
- GI50 (SW-620): > 100 µM (inactive)
- GI50 (SK-MEL-2): > 100 µM (inactive)
- GI50 (NCI-H460): > 100 µM (inactive)
- GI50 (IGROV-1): < 0.01 µM (active)
- GI50 (DU-145): > 100 µM (inactive)
- GI50 (CCRF-CEM): > 21.2 µM (inactive)
- GI50 (HT-29): 56.1 µM (inactive)
- GI50 (M14): > 100 µM (inactive)
- GI50 (PC-3): > 100 µM (inactive)
- GI50 (MCF7): < 0.01 µM (active)
- GI50 (RXF 393): > 26.1 µM (inactive)
- GI50 (786-0): 40.4 µM (inactive)
- GI50 (TK-10): < 0.01 µM (active)
- GI50 (SK-OV-3): 97.3 µM (inactive)
- GI50 (SK-MEL-28): > 100 µM (inactive)
- GI50 (BT-549): > 100 µM (inactive)
- GI50 (UACC-62): > 79.6 µM (inactive)
- GI50 (HOP-62): 47.1 µM (inactive)
- GI50 (MDA-N): > 100 µM (inactive)
- GI50 (HCT-116): < 0.01 µM (active)
- GI50 (RPMI-8226): > 100 µM (inactive)
- GI50 (ACHN): > 100 µM (inactive)
- GI50 (HCC 2998): 0.121 µM (active)
- GI50 (NCI-H522): > 63.1 µM (inactive)
- GI50 (HCT-15): > 100 µM
- GI50 (KM12): > 100 µM (inactive)
- GI50 (SNB-19): > 61.2 µM (inactive)
- GI50 (MDA-MB-231): > 54.2 µM (inactive)
- GI50 (A549): > 100 µM (inactive)
- GI50 (U-251): > 90.8 µM (inactive)
- GI50 (SR): > 76.2 µM (inactive)
- GI50 (SK-MEL-5): > 74.6 µM (inactive)
- GI50 (CAKI-1): > 100 µM (inactive)
- GI50 (SF-295): > 71 µM (inactive)
- GI50 (SN12C): > 100 µM (inactive)
- GI50 (Hs-578T): 22.2 µM (inactive)
